What was measured:
Format in all cases: biochemical
human JAK3 = target: T1, human JAK3 (Homo sapiens, UniProt P52333); assay: JAK3 inhibition assay; details: recombinant human JAK3 catalytic domain; polyGT substrate
T1 construct: catalytic domain (amino acids 781-1124; catalog number PV3855); purchased Invitrogen PV3855
How it was run: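 Radiometric kinase assay: 0.5 ng JAK3 with 2.5 μg polyGT in Tris pH 7.5/MgCl2 buffer, 1 μM ATP plus 0.25 μCi 33P-γ-ATP, 1% DMSO, 45 min at 30 °C, stopped with phosphoric acid.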

human JAK2 = target: T2, human JAK2 (Homo sapiens, UniProt O60674); assay: JAK2 inhibition assay (polyGT substrate / Ulight-JAK1 peptide); details: recombinant human JAK2 catalytic domain; polyGT or Ulight-JAK1 peptide assay
T2 construct: catalytic domain (amino acids 808-1132; catalog number PV4210); GST; purchased Invitrogen PV4210
T2 sequence (O60674 808-1132): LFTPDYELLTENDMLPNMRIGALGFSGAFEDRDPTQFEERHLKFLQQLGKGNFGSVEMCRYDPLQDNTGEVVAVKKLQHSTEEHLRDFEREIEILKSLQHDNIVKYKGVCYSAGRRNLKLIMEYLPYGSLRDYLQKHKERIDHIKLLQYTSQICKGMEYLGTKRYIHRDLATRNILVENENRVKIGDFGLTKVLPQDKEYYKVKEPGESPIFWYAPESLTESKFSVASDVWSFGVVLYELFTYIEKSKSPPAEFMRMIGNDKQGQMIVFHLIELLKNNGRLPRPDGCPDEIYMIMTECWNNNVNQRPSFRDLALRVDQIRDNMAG
How it was run: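 Two JAK2 formats: a ^33P-ATP polyGT assay (1 μM cold ATP, 90 min, 30° C., cpm read-out) and a Ulight-JAK1 peptide assay read by Europium-anti-phosphotyrosine fluorescence after 60 min at room temperature.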

human TYK2 = target: T3, human TYK2 (Homo sapiens, UniProt P29597); assay: TYK2 inhibition assay; details: recombinant human TYK2 catalytic domain, polyGT substrate
T3 construct: catalytic domain (amino acids 871-1187; catalog number 08-147); purchased Carna Biosciences 08-147
T3 sequence (P29597 871-1187): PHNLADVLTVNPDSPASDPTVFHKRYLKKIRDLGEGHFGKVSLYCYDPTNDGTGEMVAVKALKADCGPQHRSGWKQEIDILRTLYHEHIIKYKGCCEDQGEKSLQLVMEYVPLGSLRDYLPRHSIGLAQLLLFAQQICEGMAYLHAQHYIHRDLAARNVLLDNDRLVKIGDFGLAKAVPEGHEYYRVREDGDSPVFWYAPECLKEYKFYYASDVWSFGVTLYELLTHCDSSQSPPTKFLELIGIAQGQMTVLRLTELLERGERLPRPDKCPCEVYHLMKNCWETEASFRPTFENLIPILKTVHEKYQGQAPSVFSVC
How it was run: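 Radiometric kinase reaction run 90 min at 30 °C, stopped with phosphoric acid, washed and scintillation-counted.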

human JAK1 = target: T4, human JAK1 (Homo sapiens, UniProt P23458); assay: JAK1 inhibition assay (polyGT substrate / Ulight-JAK1 peptide); details: recombinant human JAK1 catalytic domain; polyGT or Ulight-JAK1 peptide assay
T4 construct: catalytic domain, amino acids 866-1154; catalog number PV4774; purchased Invitrogen PV4774
T4 sequence (P23458 866-1154): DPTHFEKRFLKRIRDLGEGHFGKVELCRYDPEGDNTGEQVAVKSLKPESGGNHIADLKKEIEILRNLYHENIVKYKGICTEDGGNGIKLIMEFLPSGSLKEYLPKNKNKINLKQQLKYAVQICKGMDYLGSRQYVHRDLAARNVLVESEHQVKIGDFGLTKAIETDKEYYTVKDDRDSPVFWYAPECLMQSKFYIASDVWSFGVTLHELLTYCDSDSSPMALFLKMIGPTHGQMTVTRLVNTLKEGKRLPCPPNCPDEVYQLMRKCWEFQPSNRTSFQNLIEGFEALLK
How it was run: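 Signal scaled between vehicle and 10 μM staurosporine. Radiometric polyGT reactions ran 45 min at 30 °C, counted after phosphoric-acid stop. Ulight peptide reactions ran 60 min at room temperature, fluorescence read after adding Eu-PT66 detection mix with EDTA.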

T1 sequence (P52333 781-1124): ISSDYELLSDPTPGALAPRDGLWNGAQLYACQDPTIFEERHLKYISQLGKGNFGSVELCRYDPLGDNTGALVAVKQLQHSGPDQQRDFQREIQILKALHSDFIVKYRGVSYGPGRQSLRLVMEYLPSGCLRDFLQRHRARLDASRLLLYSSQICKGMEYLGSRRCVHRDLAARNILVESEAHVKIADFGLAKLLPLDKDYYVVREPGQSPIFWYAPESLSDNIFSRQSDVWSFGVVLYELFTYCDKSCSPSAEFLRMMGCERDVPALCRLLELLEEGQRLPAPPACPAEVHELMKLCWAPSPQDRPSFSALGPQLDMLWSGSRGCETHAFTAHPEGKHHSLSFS

Compound | IC50 (human JAK3) [nM] | IC50 (human JAK2) [nM] | IC50 (human TYK2) [nM] | IC50 (human JAK1) [nM]
CN(c1cc2c(cn1)ncn2C)c1c(F)cc(C#N)cc1F [Compound 403, 3,5-Difluoro-4-[methyl-(1-methyl-1H-imidazo[4,5-c]pyridin-6-yl)-amino]-benzonitrile] | > 1000 | > 1000 | > 1000 | 501 to 1000
CCC(=O)NC1CN(C(C#N)c2ccc(N(C)c3cc4c(cn3)ncn4C)c(CC)c2)C1 (stereo not shown) [Compound 454, N-[1-(Cyano-{3-ethyl-4-[methyl-(1-methyl-1H-imidazo[4,5-c]pyridin-6-yl)-amino]-phenyl}-methyl)-azetidin-3-yl]-propionamide] | 101 to 500 | 0.01 to 100 | 0.01 to 100 | 0.01 to 100
CN(c1cc2c(cn1)ncn2C)c1ccc(CN(CC#N)S(C)(=O)=O)cc1F [Compound 355] | 101 to 500 | 0.01 to 100 | 101 to 500 | 0.01 to 100
CCc1cc(C(C#N)N2CC(NS(C)(=O)=O)C2)ccc1N(C)c1cc2c(cn1)ncn2C (stereo not shown) [Compound 455, N-[1-(Cyano-{3-ethyl-4-[methyl-(1-methyl-1H-imidazo[4,5-c]pyridin-6-yl)-amino]-phenyl}-methyl)-azetidin-3-yl]-methanesulfonamide] | 0.01 to 100 | 0.01 to 100 | 0.01 to 100 | 0.01 to 100
CCc1cc(C2CN(C(=O)CCC(F)(F)F)C2)ncc1N(C)c1cc2c(cn1)ncn2C [Compound 338, 1-(3-{4-Ethyl-5-[methyl-(1-methyl-1H-imidazo[4,5-c]pyridin-6-yl)-amino]-pyridin-2-yl}-azetidin-1-yl)-4,4,4-trifluoro-butan-1-one] | > 1000 | > 1000 | > 1000 | 501 to 1000
CCc1cc(C2CN(C(=O)C3CC(F)(F)C3)C2)ncc1N(C)c1cc2c(cn1)ncn2C [Compound 340] | > 1000 | > 1000 | > 1000 | 101 to 500
CCc1cc(N2CCCC(C#N)C2)ncc1N(C)c1cc2c(cn1)ncn2C (stereo not shown) [Compound 416, 4′-Ethyl-5′-[methyl-(1-methyl-1H-imidazo[4,5-c]pyridin-6-yl)-amino]-3,4,5,6-tetrahydro-2H-[1,2′]bipyridinyl-3-carbonitrile] | 0.01 to 100 | 0.01 to 100 | 101 to 500 | 0.01 to 100
CCc1cc(N2CCCC2=O)ncc1N(C)c1cc2c(cn1)ncn2C [Compound 318, 1-{4-Ethyl-5-[methyl-(1-methyl-1H-imidazo[4,5-c]pyridin-6-yl)-amino]-pyridin-2-yl}-pyrrolidin-2-one] | > 1000 | 501 to 1000 | > 1000 | 101 to 500
CCc1cc(C2CN(C(=O)CC#N)C2)ncc1N(C)c1cc2c(cn1)ncn2C [Compound 335, 3-(3-{4-Ethyl-5-[methyl-(1-methyl-1H-imidazo[4,5-c]pyridin-6-yl)-amino]-pyridin-2-yl}-azetidin-1-yl)-3-oxo-propionitrile] | > 1000 | 501 to 1000 | > 1000 | 0.01 to 100
CCC(=O)N1CC(c2cc(CC)c(N(C)c3cc4c(cn3)ncn4C)cn2)C1 [Compound 336, 1-(3-{4-Ethyl-5-[methyl-(1-methyl-1H-imidazo[4,5-c]pyridin-6-yl)-amino]-pyridin-2-yl}-azetidin-1-yl)-propan-1-one] | > 1000 | > 1000 | > 1000 | 0.01 to 100
CCc1cn(C2(CC#N)CNC2)nc1N(C)c1cc2c(cn1)ncn2C [Compound 309, (3-{4-Ethyl-3-[methyl-(1-methyl-1H-imidazo[4,5-c]pyridin-6-yl)-amino]-pyrazol-1-yl}-azetidin-3-yl)-acetonitrile] | > 1000 | > 1000 | > 1000 | > 1000
CCc1cc(CN(C)S(C)(=O)=O)ncc1N(C)c1cc2c(cn1)ncn2C [Compound 317, N-{4-Ethyl-5-[methyl-(1-methyl-1H-imidazo[4,5-c]pyridin-6-yl)-amino]-pyridin-2-ylmethyl}-N-methyl-methane sulfonamide] | 0.01 to 100 | 101 to 500 | 0.01 to 100 | 0.01 to 100
COc1ccc(N(C)c2cc3c(cn2)ncn3C)cc1 [Compound 2, N-(4-methoxyphenyl)-N,1-dimethyl-1H-imidazo[4,5-c]pyridin-6-amine] | > 1000 | > 1000 | > 1000 | 101 to 500

Second part, the molecule after the results:

IC50 (human JAK3) [nM] | IC50 (human JAK2) [nM] | IC50 (human TYK2) [nM] | IC50 (human JAK1) [nM] | Compound
101 to 500 | > 1000 | > 1000 | 101 to 500 | CCc1ccccc1N(C)c1cc2c(cn1)ncn2C(F)F [Compound 431, (1-Difluoromethyl-1H-imidazo[4,5-c]pyridin-6-yl)-(2-ethyl-phenyl)-methyl-amine]
> 1000 | > 1000 | 501 to 1000 | 101 to 500 | CCN(c1ccc2c(cnn2C)c1)c1cc2c(cn1)ncn2C [Compound 5, N-ethyl-1-methyl-N-(1-methyl-1H-indazol-5-yl)-1H-imidazo[4,5-c]pyridin-6-amine]
> 1000 | 101 to 500 | > 1000 | 0.01 to 100 | CCc1cc(C2CN(C(=O)OC)C2)ncc1N(C)c1cc2c(cn1)ncn2C [Compound 339, 3-{4-Ethyl-5-[methyl-(1-methyl-1H-imidazo[4,5-c]pyridin-6-yl)-amino]-pyridin-2-yl}-azetidine-1-carboxylic acid methyl ester]
> 1000 | > 1000 | > 1000 | 101 to 500 | Cc1cc(OCc2ccc(C#N)nc2)ccc1N(C)c1cc2c(cn1)ncn2C [Compound 89, 5-((3-methyl-4-(methyl(1-methyl-1H-imidazo[4,5-c]pyridin-6-yl)amino)phenoxy)methyl) picolinonitrile]
> 1000 | > 1000 | > 1000 | 101 to 500 | CN(c1cc2c(cn1)ncn2C)c1ccc(C#N)cc1OC(F)F [Compound 428, 3-Difluoromethoxy-4-[methyl-(1-methyl-1H-imidazo[4,5-c]pyridin-6-yl)-amino]-benzonitrile]
> 1000 | > 1000 | > 1000 | > 1000 | CCc1ccccc1N(Cc1ccccn1)c1cc2c(cn1)ncn2C [Compound 461, N-(2-ethylphenyl)-1-methyl-N-(pyridin-2-ylmethyl)-1H-imidazo[4,5-c]pyridin-6-amine]
101 to 500 | 0.01 to 100 | 0.01 to 100 | 0.01 to 100 | CCc1cc(N2CC[C@H](C)C2)ncc1N(C)c1cc2c(cn1)ncn2C [Compound 417, [4-Ethyl-6-((S)-3-methyl-pyrrolidin-1-yl)-pyridin-3-yl]-methyl-(1-methyl-1H-imidazo[4,5-c]pyridin-6-yl)-amine]
> 1000 | > 1000 | > 1000 | 101 to 500 | CCc1ccccc1N(CCN1CCOCC1)c1cc2c(cn1)ncn2C [Compound 460, N-(2-ethylphenyl)-1-methyl-N-(2-morpholinoethyl)-1H-imidazo[4,5-c]pyridin-6-amine]
> 1000 | 501 to 1000 | > 1000 | 101 to 500 | CCc1cc(N2CC(C(=O)NCC#N)C2)ncc1N(C)c1cc2c(cn1)ncn2C [Compound 401, 1-{4-Ethyl-5-[methyl-(1-methyl-1H-imidazo[4,5-c]pyridin-6-yl)-amino]-pyridin-2-yl}-azetidine-3-carboxylic acid cyanomethyl-amide]
> 1000 | > 1000 | 101 to 500 | 101 to 500 | CN(c1cc2c(cn1)ncn2C)c1ccccc1F [Compound 67, N-(2-fluorophenyl)-N,1-dimethyl-1H-imidazo[4,5-c]pyridin-6-amine]
> 1000 | 0.01 to 100 | > 1000 | 0.01 to 100 | Cc1ccc(N(C)c2cc3c(cn2)ncn3C)c(OC(F)F)c1 [Compound 427, (2-Difluoromethoxy-4-methyl-phenyl)-methyl-(1-methyl-1H-imidazo[4,5-c]pyridin-6-yl)-amine]
> 1000 | 101 to 500 | > 1000 | 101 to 500 | CN(c1cc2c(cn1)ncn2C)c1ccc(CN(CC2CC2)S(C)(=O)=O)cc1F [Compound 360]

Source: US20130217664A1, “NOVEL COMPOUNDS USEFUL FOR THE TREATMENT OF DEGENERATIVE AND INFLAMMATORY DISEASES” (priority 2012, published 2013)
